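All cell lines were grown in 96-well plates and treated with compound for 48 hours. Here, GI50 denotes the concentration required for 50% inhibition of growth.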 Activity calls are given as the source filed them. Rule as the data show it: active = GI50 up to about 1.1 µM and inactive = higher.
How the values were obtained:
Experiment in all cases: growth of human tumour cells (NCI), 48 h
Hs-578T = test system: Hs-578T
HCT-116 = test system: HCT-116
MDA-MB-231 = test system: MDA-MB-231
HCC 2998 = test system: HCC 2998
UACC-62 = test system: UACC-62
786-0 = test system: 786-0
MCF7 = test system: MCF7
HOP-92 = test system: HOP-92
PC-3 = test system: PC-3
BT-549 = test system: BT-549
Malme-3M = test system: Malme-3M
U-251 = test system: U-251
MOLT-4 = test system: MOLT-4
KM12 = test system: KM12
NCI/ADR-RES = test system: NCI/ADR-RES
LOX IMVI = test system: LOX IMVI
CAKI-1 = test system: CAKI-1
SF-268 = test system: SF-268
SF-539 = test system: SF-539
SK-MEL-2 = test system: SK-MEL-2

Measured: GI50

COc1ccc(N2/C(=N/c3ccccc3)SC(=N/S(=O)(=O)c3ccccc3)/C2=N\S(=O)(=O)c2ccccc2)cc1
inactive: Hs-578T 18.6 µM | HCT-116 12.6 µM | MDA-MB-231 14.3 µM | HCC 2998 17.3 µM | UACC-62 6.82 µM | 786-0 24.9 µM | MCF7 18.7 µM | HOP-92 16.4 µM | PC-3 16.7 µM | BT-549 24.3 µM | Malme-3M 21 µM | U-251 16.7 µM | MOLT-4 17.8 µM | KM12 38.8 µM

Cc1ccc(C)c(NC(=O)C(Cc2c[nH]c3ccccc23)NC(=O)OCc2ccccc2)c1 (stereo not drawn)
inactive: Hs-578T 58.7 µM | HCT-116 23 µM | MDA-MB-231 16.1 µM | UACC-62 15.9 µM | 786-0 15.5 µM | MCF7 23.1 µM | NCI/ADR-RES 11.1 µM | HOP-92 17.2 µM | PC-3 11.5 µM | LOX IMVI 37.3 µM | BT-549 21.8 µM | CAKI-1 16.4 µM | Malme-3M 25.4 µM | SF-268 26.4 µM | U-251 17.1 µM | SF-539 8.53 µM | SK-MEL-2 16 µM | MOLT-4 4.52 µM | KM12 16.5 µM

COc1ccc(C2SC(=N)Nc3c2c(C)nn3C(=O)c2ccncc2)cc1 (stereo not drawn)
inactive: Hs-578T > 100 µM | HCT-116 > 100 µM | MDA-MB-231 > 100 µM | UACC-62 > 100 µM | 786-0 > 100 µM | MCF7 75.2 µM | NCI/ADR-RES > 100 µM | HOP-92 > 100 µM | PC-3 > 100 µM | LOX IMVI > 100 µM | BT-549 > 100 µM | Malme-3M > 100 µM | SF-268 > 100 µM | U-251 > 100 µM | SF-539 > 100 µM | SK-MEL-2 > 100 µM | MOLT-4 44.5 µM | KM12 > 100 µM

Cc1ccc(S(=O)(=O)OC2C(C3COC(C)(C)O3)OC3OC(C)(C)OC32)cc1 (stereo not drawn)
inactive: Hs-578T > 100 µM | HCT-116 > 100 µM | MDA-MB-231 > 100 µM | HCC 2998 > 100 µM | UACC-62 > 100 µM | 786-0 > 100 µM | NCI/ADR-RES > 100 µM | HOP-92 > 100 µM | PC-3 > 100 µM | LOX IMVI > 100 µM | BT-549 > 100 µM | CAKI-1 > 100 µM | Malme-3M > 100 µM | SF-268 > 100 µM | U-251 > 100 µM | SK-MEL-2 > 100 µM | MOLT-4 > 100 µM | KM12 > 100 µM

O=C(O)c1ccc(Nc2nc3cc(C(F)(F)F)ccc3nc2-c2ccccc2)cc1
inactive: Hs-578T 17.6 µM | HCT-116 22.8 µM | MDA-MB-231 32.1 µM | HCC 2998 16.7 µM | UACC-62 10.4 µM | 786-0 18.7 µM | MCF7 > 10 µM | NCI/ADR-RES 22.5 µM | PC-3 18.5 µM | LOX IMVI 15.2 µM | BT-549 62.5 µM | CAKI-1 23.3 µM | Malme-3M 23.7 µM | SF-268 48.8 µM | U-251 14.9 µM | SF-539 21.7 µM | MOLT-4 24.9 µM | KM12 13.2 µM

COC(=O)c1c(C)cccc1/C=C1\Cc2ccc(C)c(C)c2C1=O
inactive: Hs-578T > 100 µM | HCT-116 > 100 µM | MDA-MB-231 > 100 µM | HCC 2998 > 100 µM | UACC-62 14.5 µM | 786-0 > 100 µM | MCF7 > 100 µM | HOP-92 74.3 µM | PC-3 > 100 µM | LOX IMVI > 100 µM | BT-549 > 100 µM | CAKI-1 > 100 µM | Malme-3M > 100 µM | SF-268 67.5 µM | U-251 48.9 µM | SF-539 > 100 µM | SK-MEL-2 > 100 µM | MOLT-4 93.8 µM | KM12 > 100 µM

Oc1ccc(O)c(CNc2ccc(C(O)C(F)(F)F)cc2)c1 (stereo not drawn)
inactive: Hs-578T 41.2 µM | HCT-116 16.7 µM | MDA-MB-231 15.6 µM | UACC-62 15.7 µM | 786-0 13 µM | MCF7 21.8 µM | NCI/ADR-RES 8.43 µM | HOP-92 13.6 µM | PC-3 16.3 µM | LOX IMVI 14.2 µM | BT-549 12.1 µM | CAKI-1 16 µM | Malme-3M 15.6 µM | SF-268 22.2 µM | U-251 35.8 µM | SF-539 4.85 µM | SK-MEL-2 20.1 µM | MOLT-4 5.01 µM

OC1CCN(c2c3ccccc3nc3ccccc23)CC1
inactive: Hs-578T 35.1 µM | HCT-116 4.84 µM | MDA-MB-231 25.1 µM | UACC-62 35.5 µM | 786-0 4.99 µM | MCF7 2.79 µM | NCI/ADR-RES > 100 µM | HOP-92 6.9 µM | PC-3 25.5 µM | LOX IMVI 4.52 µM | BT-549 17.7 µM | CAKI-1 20.1 µM | Malme-3M 9.82 µM | SF-268 17.2 µM | U-251 21.5 µM | SF-539 33 µM | SK-MEL-2 5.52 µM | MOLT-4 4.73 µM | KM12 37.2 µM
